# Structures can show the parent of a compound that is named as a salt. The source made the active and inactive calls.
# What was measured:
# Coagulation factor XII = molecular target: T1, Coagulation factor XII (Homo sapiens, UniProt P00748); format: functional;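 note: activated factor XIIa alpha cleaving a fluorogenic AMC peptide substrate; inhibitor potency from loss of enzyme activity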
# T1 sequence (P00748 whole entry): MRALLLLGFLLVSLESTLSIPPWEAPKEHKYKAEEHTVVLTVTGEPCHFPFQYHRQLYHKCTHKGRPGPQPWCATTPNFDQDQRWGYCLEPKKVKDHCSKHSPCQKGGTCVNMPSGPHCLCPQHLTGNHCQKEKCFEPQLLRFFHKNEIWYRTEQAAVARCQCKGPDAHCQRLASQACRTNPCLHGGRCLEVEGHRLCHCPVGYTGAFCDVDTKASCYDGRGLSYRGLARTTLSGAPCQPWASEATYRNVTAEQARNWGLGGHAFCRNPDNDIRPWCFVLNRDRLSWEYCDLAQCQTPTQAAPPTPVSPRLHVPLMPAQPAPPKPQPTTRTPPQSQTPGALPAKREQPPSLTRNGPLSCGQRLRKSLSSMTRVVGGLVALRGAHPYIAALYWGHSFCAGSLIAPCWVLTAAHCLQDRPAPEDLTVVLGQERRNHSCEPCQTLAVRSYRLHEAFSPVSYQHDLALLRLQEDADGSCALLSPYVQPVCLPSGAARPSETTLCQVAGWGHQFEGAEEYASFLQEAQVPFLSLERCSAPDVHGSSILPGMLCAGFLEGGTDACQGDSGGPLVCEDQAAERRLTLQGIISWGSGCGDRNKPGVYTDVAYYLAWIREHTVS
# [1] = microbe, parasite or virus in culture; format: functional; details: Mycobacterium tuberculosis
# [2] = THP-1 cell cytotoxicity, dose response, cytotoxicity control for non-replicating M. tuberculosis project (AID 489025); format: functional
# [3] = Vero E6 cell cytotoxicity, dose response, cytotoxicity control for non-replicating M. tuberculosis project, secondary assay (AID 492998); format: functional, VeroE6; details: Vero C1008
# cells = format: functional
# [4] = molecular target: T2, Alkaline phosphatase, tissue-nonspecific isozyme (Homo sapiens, UniProt P05186); assay: human TNAP enzyme inhibitors, SAR follow-up, biochemical, luminescent, dose response (AID 1056)
# T2 sequence (P05186 whole entry): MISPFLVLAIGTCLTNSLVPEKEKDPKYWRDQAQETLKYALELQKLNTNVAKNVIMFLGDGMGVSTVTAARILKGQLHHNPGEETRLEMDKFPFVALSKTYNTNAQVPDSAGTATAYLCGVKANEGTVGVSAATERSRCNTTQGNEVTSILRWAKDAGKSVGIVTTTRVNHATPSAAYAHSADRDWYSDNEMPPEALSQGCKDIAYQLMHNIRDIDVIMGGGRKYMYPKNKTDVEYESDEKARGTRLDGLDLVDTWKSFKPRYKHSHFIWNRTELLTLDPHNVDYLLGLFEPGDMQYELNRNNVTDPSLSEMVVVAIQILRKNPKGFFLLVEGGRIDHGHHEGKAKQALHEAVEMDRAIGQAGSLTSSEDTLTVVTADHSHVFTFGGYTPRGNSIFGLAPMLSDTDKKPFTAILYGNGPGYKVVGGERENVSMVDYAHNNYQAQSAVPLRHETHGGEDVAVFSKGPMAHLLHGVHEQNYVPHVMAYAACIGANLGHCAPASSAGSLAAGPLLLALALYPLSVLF
# Cytochrome P450 3A4 = Cytochrome P450 3A4 (Homo sapiens, UniProt P08684);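 note: CYP3A4 tested as one member of a cytochrome P450 panel screen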
# [5] = inhibitors of intracellular T. cruzi replication, confirmation, NIH3T3 host cells, beta-gal luminescence (AID 2044); format: functional, cell-based;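 note: intracellular parasites grown in NIH/3T3 mouse fibroblasts as host cells; luminescent beta-galactosidase reporter signal from transgenic T. cruzi replicating inside host cells; inhibitors lower the luminescence signal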
# [6] = cytotoxicity toward NIH3T3 fibroblasts, dose response, counter-screen, cell-based, ATP luminescence, mouse fibroblasts (AID 2010); format: functional;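 note: cells exposed to compound for about 90 hours before reading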
# [7] = molecular target: T3, Carboxy-terminal domain RNA polymerase II polypeptide A small phosphatase 1 (Homo sapiens, UniProt Q9GZU7); assay: inhibitors of CTDSP1, concentration-response testing, biochemical assay, absorbance-based, actives from ultra-high-throughput screening (AID 540297); format: functional
# T3 sequence (Q9GZU7 whole entry): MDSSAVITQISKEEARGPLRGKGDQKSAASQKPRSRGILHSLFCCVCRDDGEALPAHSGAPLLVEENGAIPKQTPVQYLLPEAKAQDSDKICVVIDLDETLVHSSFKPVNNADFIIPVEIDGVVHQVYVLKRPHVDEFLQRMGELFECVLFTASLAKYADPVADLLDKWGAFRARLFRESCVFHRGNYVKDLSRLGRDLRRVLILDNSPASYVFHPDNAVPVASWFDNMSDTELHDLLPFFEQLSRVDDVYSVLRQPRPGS
# HEK293 [8] = assay: NOD1 signaling inhibitors, primary screen, cell-based, luminescence, uHTS (AID 1578); format: functional; details: Homo sapiens
# HEK293 [9] = assay: cells; format: functional, cell-based; details: Homo sapiens
# HEK293 [10] = assay: cells; format: functional, cell-based; details: Homo sapiens; remark: listed apart in the source
# [11] = molecular target: Nucleotide-binding oligomerization domain-containing protein 2 (Homo sapiens, UniProt Q9HC29); assay: NOD2 signaling inhibitors, cell-based, luminescence, uHTS, HEK293 (AID 1566); format: functional
# HEK293 [12] = assay: NOD2 signaling inhibitors in MDP-stimulated cells, cell-based, uHTS, luminescence (AID 2001); format: functional; details: Homo sapiens
# HEK293 [13] = assay: cells; format: functional, cell-based; details: Homo sapiens; remark: listed apart in the source
# [14] = Luminescence Cell-Based Dose Retest to Confirm Inhibitors of Cancer Stem Cells. [Related pubchem assays (depositor defined):AID2717, AID2721]; format: functional; details: Homo sapiens
# INS1 = assay: beta cell apoptosis inhibitors, cytokine rescue, dose response, luminescence, retest (AID 449756); format: functional, cell-based; details: Rattus norvegicus;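 note: cell death triggered by IL-1 beta plus TNF-alpha plus IFN-gamma mixture; protective hits raise ATP signal compared with cytokine alone wells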
# Cytochrome P450 1A2 = molecular target: T4, Cytochrome P450 1A2 (Homo sapiens, UniProt P05177);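 note: PubChem cytochrome P450 panel assay, CYP1A2 panel member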
# T4 sequence (P05177 whole entry): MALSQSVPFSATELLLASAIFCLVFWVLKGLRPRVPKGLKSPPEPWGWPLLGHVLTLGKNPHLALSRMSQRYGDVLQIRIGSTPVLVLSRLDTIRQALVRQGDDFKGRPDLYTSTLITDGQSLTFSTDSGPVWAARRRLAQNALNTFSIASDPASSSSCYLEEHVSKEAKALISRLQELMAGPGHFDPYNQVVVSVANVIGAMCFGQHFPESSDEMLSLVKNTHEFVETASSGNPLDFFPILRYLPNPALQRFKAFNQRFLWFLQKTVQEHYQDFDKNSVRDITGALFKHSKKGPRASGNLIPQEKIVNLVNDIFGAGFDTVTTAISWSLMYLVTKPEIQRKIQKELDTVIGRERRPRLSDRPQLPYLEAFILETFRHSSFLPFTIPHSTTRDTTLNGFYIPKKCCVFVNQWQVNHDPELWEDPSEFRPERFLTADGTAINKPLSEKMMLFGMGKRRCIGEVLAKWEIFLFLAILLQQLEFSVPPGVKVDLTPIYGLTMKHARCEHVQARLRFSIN
# [15] = molecular target: DNA dC->dU-editing enzyme APOBEC-3A (Homo sapiens, UniProt P31941); assay: Dose Response confirmation of small molecule APOBEC3A DNA Deaminase Inhibitors via a fluorescence-based single-stranded DNA deaminase assay. [Related pubchem assays (depositor defined):AID493011, AID493024]; format: functional
# [16] = molecular target: DNA dC->dU-editing enzyme APOBEC-3G (Homo sapiens, UniProt Q9HC16); format: functional;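 note: Dose-response counterscreen measuring inhibition of APOBEC3G DNA deaminase activity, run while confirming APOBEC3A inhibitors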
# [17] = molecular target: T5, Short transient receptor potential channel 4 (Mus musculus, UniProt Q9QUQ5); assay: mouse TRPC4 channel inhibitors, dose response, cell-based, HEK293 TRPC4/mu-opioid, Fluo-4 calcium (AID 434942); format: functional;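 note: potency of inhibitors blocking the TRPC4 calcium response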
# T5 sequence (Q9QUQ5 whole entry): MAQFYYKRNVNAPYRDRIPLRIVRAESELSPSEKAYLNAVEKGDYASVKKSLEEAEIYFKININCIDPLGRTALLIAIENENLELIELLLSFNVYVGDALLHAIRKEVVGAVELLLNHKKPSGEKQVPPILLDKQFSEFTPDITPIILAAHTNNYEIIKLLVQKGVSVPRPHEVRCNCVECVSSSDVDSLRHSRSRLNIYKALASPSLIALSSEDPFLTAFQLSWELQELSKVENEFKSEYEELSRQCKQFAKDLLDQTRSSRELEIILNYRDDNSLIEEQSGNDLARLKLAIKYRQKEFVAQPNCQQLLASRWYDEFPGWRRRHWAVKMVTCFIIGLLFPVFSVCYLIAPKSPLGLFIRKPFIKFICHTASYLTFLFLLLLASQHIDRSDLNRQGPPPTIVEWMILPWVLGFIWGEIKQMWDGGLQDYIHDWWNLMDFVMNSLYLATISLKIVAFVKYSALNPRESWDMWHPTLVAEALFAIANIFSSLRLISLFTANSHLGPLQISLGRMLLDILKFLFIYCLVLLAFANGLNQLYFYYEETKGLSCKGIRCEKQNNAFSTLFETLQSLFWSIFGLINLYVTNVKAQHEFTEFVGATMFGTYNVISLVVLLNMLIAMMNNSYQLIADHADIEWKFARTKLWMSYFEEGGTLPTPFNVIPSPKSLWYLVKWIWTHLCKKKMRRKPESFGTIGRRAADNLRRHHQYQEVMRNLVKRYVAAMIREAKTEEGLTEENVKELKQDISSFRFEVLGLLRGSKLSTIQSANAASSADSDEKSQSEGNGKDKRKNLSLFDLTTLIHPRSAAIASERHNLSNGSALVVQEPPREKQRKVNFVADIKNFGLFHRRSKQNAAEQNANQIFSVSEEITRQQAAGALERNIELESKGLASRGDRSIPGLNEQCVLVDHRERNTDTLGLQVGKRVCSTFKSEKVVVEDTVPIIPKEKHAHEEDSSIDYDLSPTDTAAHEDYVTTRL
# [18] = molecular target: T6, High affinity choline transporter 1 (Homo sapiens, UniProt Q9GZV3); assay: CHT inhibitors, dose response, cell-based, 5-point CRC, membrane potential dye (AID 504840); format: functional
# T6 sequence (Q9GZV3 whole entry): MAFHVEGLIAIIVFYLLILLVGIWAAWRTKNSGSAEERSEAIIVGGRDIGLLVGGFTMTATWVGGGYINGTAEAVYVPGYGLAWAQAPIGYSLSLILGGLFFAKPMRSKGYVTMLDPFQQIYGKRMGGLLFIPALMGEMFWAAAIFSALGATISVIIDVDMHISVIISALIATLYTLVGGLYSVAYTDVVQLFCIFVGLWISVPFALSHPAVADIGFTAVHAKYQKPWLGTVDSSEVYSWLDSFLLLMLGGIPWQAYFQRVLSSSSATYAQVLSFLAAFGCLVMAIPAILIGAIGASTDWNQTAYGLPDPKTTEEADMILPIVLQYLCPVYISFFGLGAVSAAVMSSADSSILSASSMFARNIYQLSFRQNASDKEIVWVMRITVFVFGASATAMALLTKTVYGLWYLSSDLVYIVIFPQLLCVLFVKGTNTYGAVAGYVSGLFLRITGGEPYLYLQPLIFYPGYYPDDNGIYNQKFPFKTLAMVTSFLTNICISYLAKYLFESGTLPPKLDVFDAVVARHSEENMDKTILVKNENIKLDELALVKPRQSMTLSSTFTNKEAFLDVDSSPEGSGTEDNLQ
# [19] = molecular target: Glyceraldehyde-3-phosphate dehydrogenase (Homo sapiens, UniProt P04406)
# Sequence of Glyceraldehyde-3-phosphate dehydrogenase (P04406 whole entry): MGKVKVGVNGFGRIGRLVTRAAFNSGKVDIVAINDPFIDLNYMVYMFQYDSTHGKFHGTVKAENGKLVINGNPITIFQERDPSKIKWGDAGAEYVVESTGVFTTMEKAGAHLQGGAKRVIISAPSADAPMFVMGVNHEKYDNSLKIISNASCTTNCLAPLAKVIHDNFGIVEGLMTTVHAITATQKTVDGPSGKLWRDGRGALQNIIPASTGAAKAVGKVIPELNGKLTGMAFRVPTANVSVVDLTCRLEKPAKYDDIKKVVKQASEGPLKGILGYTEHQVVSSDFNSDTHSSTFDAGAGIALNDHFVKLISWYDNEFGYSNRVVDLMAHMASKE
# Sequence of Cytochrome P450 3A4 (P08684 whole entry): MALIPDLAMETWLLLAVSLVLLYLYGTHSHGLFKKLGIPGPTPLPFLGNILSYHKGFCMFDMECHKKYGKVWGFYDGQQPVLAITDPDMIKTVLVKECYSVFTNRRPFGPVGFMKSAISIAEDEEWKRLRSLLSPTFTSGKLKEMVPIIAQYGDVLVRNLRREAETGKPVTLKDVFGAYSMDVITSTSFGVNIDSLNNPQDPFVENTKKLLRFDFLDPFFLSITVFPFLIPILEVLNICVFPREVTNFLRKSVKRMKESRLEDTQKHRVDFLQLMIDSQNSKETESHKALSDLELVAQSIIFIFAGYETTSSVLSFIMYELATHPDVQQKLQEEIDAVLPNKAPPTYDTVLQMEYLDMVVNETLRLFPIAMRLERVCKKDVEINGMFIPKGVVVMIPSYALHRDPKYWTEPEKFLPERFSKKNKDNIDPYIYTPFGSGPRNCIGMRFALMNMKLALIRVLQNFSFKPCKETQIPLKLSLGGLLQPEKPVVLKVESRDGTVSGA
# Sequence of DNA dC->dU-editing enzyme APOBEC-3G (Q9HC16 whole entry): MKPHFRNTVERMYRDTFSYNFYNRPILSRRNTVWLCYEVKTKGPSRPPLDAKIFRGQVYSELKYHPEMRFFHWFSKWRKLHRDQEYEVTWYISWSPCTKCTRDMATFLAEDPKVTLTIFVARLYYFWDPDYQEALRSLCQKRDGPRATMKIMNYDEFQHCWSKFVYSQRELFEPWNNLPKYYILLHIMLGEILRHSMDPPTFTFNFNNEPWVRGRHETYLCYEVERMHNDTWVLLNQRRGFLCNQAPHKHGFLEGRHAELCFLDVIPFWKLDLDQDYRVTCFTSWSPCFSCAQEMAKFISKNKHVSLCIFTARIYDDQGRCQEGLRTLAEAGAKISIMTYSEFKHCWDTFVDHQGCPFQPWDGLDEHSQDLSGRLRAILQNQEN
# Sequence of DNA dC->dU-editing enzyme APOBEC-3A (P31941 whole entry): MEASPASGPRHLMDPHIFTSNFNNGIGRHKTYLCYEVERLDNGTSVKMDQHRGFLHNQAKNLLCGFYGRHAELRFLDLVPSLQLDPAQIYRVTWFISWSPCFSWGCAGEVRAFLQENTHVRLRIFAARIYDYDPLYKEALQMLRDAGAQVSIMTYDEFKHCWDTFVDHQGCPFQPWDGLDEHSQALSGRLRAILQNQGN
# Sequence of Nucleotide-binding oligomerization domain-containing protein 2 (Q9HC29 whole entry, the tested form may be a part): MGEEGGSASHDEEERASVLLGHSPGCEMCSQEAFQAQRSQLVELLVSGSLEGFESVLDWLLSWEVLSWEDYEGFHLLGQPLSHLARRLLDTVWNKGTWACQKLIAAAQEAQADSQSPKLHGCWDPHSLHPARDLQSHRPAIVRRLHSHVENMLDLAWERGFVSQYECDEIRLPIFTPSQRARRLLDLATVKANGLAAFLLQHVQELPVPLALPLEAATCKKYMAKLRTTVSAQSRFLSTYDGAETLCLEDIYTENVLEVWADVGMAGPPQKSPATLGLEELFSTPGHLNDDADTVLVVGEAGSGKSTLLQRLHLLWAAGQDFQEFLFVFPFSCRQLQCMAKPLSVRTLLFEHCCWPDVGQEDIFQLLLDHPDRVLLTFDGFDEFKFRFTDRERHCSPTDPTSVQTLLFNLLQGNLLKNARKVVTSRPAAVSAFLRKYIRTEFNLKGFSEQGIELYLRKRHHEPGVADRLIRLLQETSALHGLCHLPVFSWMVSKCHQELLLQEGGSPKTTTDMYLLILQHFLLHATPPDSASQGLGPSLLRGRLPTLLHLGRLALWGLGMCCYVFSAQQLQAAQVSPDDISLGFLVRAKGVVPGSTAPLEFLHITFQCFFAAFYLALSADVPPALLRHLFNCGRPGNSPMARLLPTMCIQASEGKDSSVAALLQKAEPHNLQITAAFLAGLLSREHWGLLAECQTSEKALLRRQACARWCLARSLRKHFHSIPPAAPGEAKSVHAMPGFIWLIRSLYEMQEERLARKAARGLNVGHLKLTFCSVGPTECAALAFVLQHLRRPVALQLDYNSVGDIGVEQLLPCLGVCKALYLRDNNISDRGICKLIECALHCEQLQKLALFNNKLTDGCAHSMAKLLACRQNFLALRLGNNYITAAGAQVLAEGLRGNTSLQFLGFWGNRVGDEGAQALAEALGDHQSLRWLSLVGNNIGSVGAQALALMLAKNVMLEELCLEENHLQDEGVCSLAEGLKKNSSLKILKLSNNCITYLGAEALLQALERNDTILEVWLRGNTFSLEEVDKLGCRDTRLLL
structure (smiles),measurement,setting,value
COC(=O)c1ccc(Nc2nc(C)cc(=O)[nH]2)cc1,IC50,Coagulation factor XII,> 50 µM (inactive)
O=C(Nc1ccccc1Cl)C1CC(=O)N(c2ccccc2)C1 (configuration not stated),IC50,Coagulation factor XII,> 50 µM (inactive)
CCCCn1c(=O)c(C(=O)Nc2ncccc2C)c(O)c2ccccc21,CC50,[1],29.3 µM (active)
same,CC50,[2],> 40 µM (active)
same,CC50,[3],> 20 µM (active)
same,IC50,cells,17.3 µM (active)
CCOc1ccc(C(C)(C)C)cc1S(=O)(=O)Nc1cccnc1,IC50,[4],12.5 µM (active)
N#Cc1cccc(NC(=O)N2CCC3(CC2)CCN(C(=O)c2cccc(F)c2)CC3)c1,AC50,Cytochrome P450 3A4,inconclusive
Cc1cc(C(=O)N/N=C/c2ccc(-c3ccccc3Cl)o2)[nH]n1,EC50,[5],1.5 µM (active)
same,EC50,[6],> 60 µM (not active)
same,IC50,[7],11.5 µM (active)
O=[N+]([O-])c1cncc([N+](=O)[O-])c1Nc1ccccc1Cl,IC50,Coagulation factor XII,> 50 µM (inactive)
same,IC50,cells,8.86 µM (active)
CC(C)(C)C1CCC2(CC1)C(C#N)=C(SCC(=O)NC1CCCCC1)NC(=O)C2C#N (configuration not stated),EC50,HEK293 [8],6.58 µM (active)
same,IC50,HEK293 [9],9.32 µM (active)
same,IC50,HEK293 [10],13.6 µM (active)
same,EC50,[11],17.6 µM (active)
same,IC50,HEK293 [12],9.18 µM (active)
same,IC50,HEK293 [13],> 20 µM (inactive)
same,AC50,[14],6.34 µM (active)
same,AC50,INS1,8.73 µM (active)
CC1CN(C2=CC(=[N+]3CCOCC3)CC(C)(C)C2)CC(C)O1 (configuration not stated),IC50,[7],1.83 µM (active)
Cn1cccc1C(=O)N1CCC2(CC1)CCN(C(c1ccccc1)c1ccccc1)CC2,AC50,Cytochrome P450 1A2,5.01 µM (inconclusive)
same,AC50,Cytochrome P450 3A4,inconclusive
O=C(Nc1ccccc1)N1CCC2(CC1)CCN(C(=O)c1cccc(F)c1)CC2,AC50,Cytochrome P450 1A2,10 µM (inconclusive)
same,AC50,Cytochrome P450 3A4,inconclusive
COc1ccc(CN2CCNCC2)c(OC)c1OC [TRIMETAZIDINE DIHYDROCHLORIDE],IC50,[15],8.26 µM (active)
same,IC50,[16],7.19 µM (active)
same,IC50,[7],8.85 µM (active)
COc1ccccc1CC(Cc1nc2ccccc2[nH]1)c1nc2ccccc2[nH]1 (configuration not stated),EC50,[17],3.35 µM (active)
same,IC50,[18],13.8 µM (active)
O=c1c(-c2ccc(Cl)cc2)nc2cnc(N3CCOCC3)nc2n1CCc1ccccc1,AC50,Cytochrome P450 1A2,2 µM (inconclusive)
same,AC50,Cytochrome P450 3A4,inconclusive
O=C(Nc1ccc(S(=O)(=O)Nc2nccs2)cc1)c1nn(-c2ccccc2)ccc1=O,IC50,[7],3.52 µM (active)
COc1ccc(S(=O)(=O)Nc2ccc3ccccc3c2)cc1OC,IC50,[19],> 100 µM (not active)
same,IC50,[4],> 100 µM (inactive)
COc1ccc2c(c1)CCc1c(C(=O)NCc3ccc(F)cc3)noc1-2,IC50,Coagulation factor XII,3.61 µM (active)

# — ChEMBL document CHEMBL1201862, “PubChem BioAssay data set” (2004)
